Test [1] deals with TGF-beta receptor type-2 (Homo sapiens) (UniProt P37173). In words: Inhibition of TGFBR2 (unknown origin) at 1 uM by Ambit Kinomescan binding assay relative to control.
Test [2] deals with Phosphatidylinositol 4,5-bisphosphate 3-kinase catalytic subunit alpha isoform (Homo sapiens), P42336 [H1047Y]. In words: Inhibition of PIK3CA H1047Y mutant (unknown origin) at 1 uM by Ambit Kinomescan binding assay relative to control.
The target of test [3] is Fibroblast growth factor receptor 2 (Homo sapiens) (UniProt P21802). In words: Inhibition of FGFR2 (unknown origin) at 1 uM by Ambit Kinomescan binding assay relative to control; values are per cent of control.
For test [4], the target named is Serine/threonine-protein kinase 25 (Homo sapiens) (UniProt O00506). In words: Inhibition of YSK1 ACT labeling site in human A-375 cells at 0.05 uM by KiNativ Profiling analysis relative to control. It is filed as cell-based.
Sequence of Serine/threonine-protein kinase 25 (Homo sapiens) (O00506 whole entry, looked up): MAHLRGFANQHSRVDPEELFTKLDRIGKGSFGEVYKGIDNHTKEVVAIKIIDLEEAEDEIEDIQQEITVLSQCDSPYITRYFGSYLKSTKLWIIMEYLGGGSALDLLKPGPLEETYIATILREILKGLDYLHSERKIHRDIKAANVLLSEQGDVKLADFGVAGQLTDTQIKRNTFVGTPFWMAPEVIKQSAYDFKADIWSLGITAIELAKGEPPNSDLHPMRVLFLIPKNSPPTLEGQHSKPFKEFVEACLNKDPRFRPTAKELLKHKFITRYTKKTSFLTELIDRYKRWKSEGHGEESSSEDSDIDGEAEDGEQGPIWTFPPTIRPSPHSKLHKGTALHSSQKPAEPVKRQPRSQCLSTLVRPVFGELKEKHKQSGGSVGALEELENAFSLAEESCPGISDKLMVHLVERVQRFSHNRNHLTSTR
Test [5] concerns the target TRAF2 and NCK-interacting protein kinase (Homo sapiens) (UniProt Q9UKE5). In words: Inhibition of ZC2 Lys2 labeling site in human A-375 cells at 0.5 uM by KiNativ Profiling analysis relative to control. Type of test: cell-based.
For test [6], the target named is MAP/microtubule affinity-regulating kinase 3 (Homo sapiens) (UniProt P27448). In words: Inhibition of MARK3 Lys2 labeling site in human A-375 cells at 0.5 uM by KiNativ Profiling analysis relative to control. Type of test: cell-based.
For test [7], the target named is Cyclin-dependent kinase 9 (Homo sapiens) (UniProt P50750). In words: Inhibition of CDK9 K2 labeling site in human Huh-7 cells at 10 uM by KiNativ Profiling analysis relative to control. It is filed as cell-based.
The target of test [8] is Mitogen-activated protein kinase 11 (Homo sapiens) (UniProt Q15759). In words: Inhibition of p38beta (unknown origin) at 10 uM by Ambit Kinomescan binding assay relative to control; values are per cent of control.
Sequence of Mitogen-activated protein kinase 11 (Homo sapiens) (Q15759 whole entry): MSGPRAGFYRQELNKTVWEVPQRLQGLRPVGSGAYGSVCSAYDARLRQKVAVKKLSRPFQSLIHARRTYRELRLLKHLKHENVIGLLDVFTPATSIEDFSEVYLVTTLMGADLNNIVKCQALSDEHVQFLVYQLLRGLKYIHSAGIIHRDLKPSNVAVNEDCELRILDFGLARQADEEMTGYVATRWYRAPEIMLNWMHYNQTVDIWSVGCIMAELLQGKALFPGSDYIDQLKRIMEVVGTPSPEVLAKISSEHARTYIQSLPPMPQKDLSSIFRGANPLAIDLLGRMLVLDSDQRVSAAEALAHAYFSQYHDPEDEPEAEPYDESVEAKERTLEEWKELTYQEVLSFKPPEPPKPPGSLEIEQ
The target in test [9] is Serine/threonine-protein kinase DCLK2 (Homo sapiens) (UniProt Q8N568). In words: Inhibition of DCAMKL2 (unknown origin) at 10 uM by Ambit Kinomescan binding assay.
Sequence of Serine/threonine-protein kinase DCLK2 (Homo sapiens) (Q8N568 whole entry): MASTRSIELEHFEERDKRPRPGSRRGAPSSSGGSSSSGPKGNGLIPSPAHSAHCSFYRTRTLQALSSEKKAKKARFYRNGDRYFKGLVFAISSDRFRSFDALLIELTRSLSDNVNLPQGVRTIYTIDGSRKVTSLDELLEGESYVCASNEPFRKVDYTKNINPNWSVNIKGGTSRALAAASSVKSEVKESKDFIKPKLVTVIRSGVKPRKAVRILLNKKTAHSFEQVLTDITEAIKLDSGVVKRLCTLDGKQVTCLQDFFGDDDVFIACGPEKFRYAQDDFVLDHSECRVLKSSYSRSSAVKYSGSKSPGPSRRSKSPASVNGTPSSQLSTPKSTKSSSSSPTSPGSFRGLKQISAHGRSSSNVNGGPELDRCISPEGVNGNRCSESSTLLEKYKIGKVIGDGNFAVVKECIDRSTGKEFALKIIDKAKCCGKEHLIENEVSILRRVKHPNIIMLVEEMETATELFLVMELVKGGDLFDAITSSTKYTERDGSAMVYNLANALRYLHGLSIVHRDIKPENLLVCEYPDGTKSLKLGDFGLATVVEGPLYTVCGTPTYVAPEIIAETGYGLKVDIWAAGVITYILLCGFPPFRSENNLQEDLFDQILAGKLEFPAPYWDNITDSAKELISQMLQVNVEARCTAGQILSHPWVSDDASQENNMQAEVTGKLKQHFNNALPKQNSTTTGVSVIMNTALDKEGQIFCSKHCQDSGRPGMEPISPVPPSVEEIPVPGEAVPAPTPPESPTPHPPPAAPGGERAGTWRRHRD
The target of test [10] is T1, Mitogen-activated protein kinase kinase kinase kinase 2 (Homo sapiens) (UniProt Q12851).
T1 sequence (whole entry): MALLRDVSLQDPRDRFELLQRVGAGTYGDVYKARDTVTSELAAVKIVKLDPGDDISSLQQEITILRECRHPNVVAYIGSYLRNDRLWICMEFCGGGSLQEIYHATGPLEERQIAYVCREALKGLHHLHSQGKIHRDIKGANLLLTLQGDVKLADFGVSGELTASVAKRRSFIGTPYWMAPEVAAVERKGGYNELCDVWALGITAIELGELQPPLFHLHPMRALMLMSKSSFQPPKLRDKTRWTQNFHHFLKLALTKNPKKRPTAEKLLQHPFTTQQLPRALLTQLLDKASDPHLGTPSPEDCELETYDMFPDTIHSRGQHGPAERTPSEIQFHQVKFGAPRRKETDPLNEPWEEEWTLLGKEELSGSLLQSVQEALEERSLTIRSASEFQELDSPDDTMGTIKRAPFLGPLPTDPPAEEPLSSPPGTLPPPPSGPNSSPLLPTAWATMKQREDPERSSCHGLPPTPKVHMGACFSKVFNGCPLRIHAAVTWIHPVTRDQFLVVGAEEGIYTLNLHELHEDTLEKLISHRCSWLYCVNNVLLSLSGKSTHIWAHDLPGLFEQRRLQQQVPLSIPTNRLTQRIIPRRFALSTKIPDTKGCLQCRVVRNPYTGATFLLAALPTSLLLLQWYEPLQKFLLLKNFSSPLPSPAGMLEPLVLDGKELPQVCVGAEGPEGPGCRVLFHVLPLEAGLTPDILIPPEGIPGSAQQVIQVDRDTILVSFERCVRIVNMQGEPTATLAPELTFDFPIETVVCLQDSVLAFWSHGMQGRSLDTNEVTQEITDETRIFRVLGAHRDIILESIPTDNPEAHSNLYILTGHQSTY
In words: Inhibition of MAP4K2 (GCK) Lys1 labeling site in human A-375 cells at 0.05 uM by KiNativ Profiling analysis relative to control. Type of test: cell-based.

In test [11] the target is Activated CDC42 kinase 1 (Homo sapiens) (UniProt Q07912). In words: Inhibition of ACK Lys1 labeling site in human A-375 cells at 5 uM by KiNativ Profiling analysis relative to control. It is filed as cell-based.
The target of test [12] is Mitogen-activated protein kinase kinase kinase kinase 4 (Homo sapiens, UniProt O95819). In words: Inhibition of ZC1 Lys2 labeling site in human A-375 cells at 5 uM by KiNativ Profiling analysis relative to control. Type of test: cell-based.
The nature of test [13]: Inhibition of Wnk1/2/4 ACT labeling site in human Huh-7 cells at 1 uM by KiNativ Profiling analysis relative to control. Conditions: condition cancer.
Test [14] deals with T2, Serine/threonine-protein kinase Chk1 (Homo sapiens) (UniProt O14757).
T2 sequence (whole entry): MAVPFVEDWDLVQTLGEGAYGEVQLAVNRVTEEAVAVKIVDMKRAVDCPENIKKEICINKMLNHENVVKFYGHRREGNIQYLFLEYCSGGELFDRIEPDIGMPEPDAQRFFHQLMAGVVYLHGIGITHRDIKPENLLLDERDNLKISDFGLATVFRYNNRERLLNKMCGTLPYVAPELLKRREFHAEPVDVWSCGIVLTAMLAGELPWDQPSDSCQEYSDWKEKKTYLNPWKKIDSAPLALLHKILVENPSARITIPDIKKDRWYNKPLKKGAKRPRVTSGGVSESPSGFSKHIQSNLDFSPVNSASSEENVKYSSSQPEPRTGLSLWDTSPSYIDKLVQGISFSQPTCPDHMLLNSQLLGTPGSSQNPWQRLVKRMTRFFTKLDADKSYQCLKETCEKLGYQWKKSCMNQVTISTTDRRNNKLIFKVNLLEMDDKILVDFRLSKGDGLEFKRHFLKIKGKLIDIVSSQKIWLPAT
In words: Inhibition of CHEK1 (unknown origin) at 10 uM by Ambit Kinomescan binding assay.

In test [15] the target is Serine/threonine-protein kinase WNK4 (Homo sapiens) (UniProt Q96J92). In words: Inhibition of Wnk4 ACT labeling site in human Huh-7 cells at 1 uM by KiNativ Profiling analysis relative to control. It is filed as cell-based.
In test [16] the target is Serine/threonine-protein kinase 16 (Homo sapiens) (UniProt O75716). In words: Inhibition of MPSK1 Lys2 labeling site in human Huh-7 cells at 1 uM by KiNativ Profiling analysis relative to control. Type of test: cell-based.
Sequence of Serine/threonine-protein kinase 16 (Homo sapiens) (O75716 whole entry): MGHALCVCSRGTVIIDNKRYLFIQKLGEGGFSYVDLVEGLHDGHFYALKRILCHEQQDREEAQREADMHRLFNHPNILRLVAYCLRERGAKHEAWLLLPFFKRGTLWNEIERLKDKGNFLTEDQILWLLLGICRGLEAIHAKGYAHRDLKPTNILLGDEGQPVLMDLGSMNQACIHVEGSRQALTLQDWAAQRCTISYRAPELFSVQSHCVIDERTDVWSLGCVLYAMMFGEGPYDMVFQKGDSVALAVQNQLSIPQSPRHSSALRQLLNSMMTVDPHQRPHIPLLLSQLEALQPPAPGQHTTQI

Active and inactive are the calls of the source. The calls are words filed in the database; no cut-off is given here.

The source of these data is ChEMBL document CHEMBL5696442, “Discovery of type II inhibitors of TGFβ-activated kinase 1 (TAK1) and mitogen-activated protein kinase kinase kinase kinase 2 (MAP4K2)” (J Med Chem, 2015).

Sequence of TRAF2 and NCK-interacting protein kinase (Homo sapiens) (Q9UKE5 whole entry, looked up): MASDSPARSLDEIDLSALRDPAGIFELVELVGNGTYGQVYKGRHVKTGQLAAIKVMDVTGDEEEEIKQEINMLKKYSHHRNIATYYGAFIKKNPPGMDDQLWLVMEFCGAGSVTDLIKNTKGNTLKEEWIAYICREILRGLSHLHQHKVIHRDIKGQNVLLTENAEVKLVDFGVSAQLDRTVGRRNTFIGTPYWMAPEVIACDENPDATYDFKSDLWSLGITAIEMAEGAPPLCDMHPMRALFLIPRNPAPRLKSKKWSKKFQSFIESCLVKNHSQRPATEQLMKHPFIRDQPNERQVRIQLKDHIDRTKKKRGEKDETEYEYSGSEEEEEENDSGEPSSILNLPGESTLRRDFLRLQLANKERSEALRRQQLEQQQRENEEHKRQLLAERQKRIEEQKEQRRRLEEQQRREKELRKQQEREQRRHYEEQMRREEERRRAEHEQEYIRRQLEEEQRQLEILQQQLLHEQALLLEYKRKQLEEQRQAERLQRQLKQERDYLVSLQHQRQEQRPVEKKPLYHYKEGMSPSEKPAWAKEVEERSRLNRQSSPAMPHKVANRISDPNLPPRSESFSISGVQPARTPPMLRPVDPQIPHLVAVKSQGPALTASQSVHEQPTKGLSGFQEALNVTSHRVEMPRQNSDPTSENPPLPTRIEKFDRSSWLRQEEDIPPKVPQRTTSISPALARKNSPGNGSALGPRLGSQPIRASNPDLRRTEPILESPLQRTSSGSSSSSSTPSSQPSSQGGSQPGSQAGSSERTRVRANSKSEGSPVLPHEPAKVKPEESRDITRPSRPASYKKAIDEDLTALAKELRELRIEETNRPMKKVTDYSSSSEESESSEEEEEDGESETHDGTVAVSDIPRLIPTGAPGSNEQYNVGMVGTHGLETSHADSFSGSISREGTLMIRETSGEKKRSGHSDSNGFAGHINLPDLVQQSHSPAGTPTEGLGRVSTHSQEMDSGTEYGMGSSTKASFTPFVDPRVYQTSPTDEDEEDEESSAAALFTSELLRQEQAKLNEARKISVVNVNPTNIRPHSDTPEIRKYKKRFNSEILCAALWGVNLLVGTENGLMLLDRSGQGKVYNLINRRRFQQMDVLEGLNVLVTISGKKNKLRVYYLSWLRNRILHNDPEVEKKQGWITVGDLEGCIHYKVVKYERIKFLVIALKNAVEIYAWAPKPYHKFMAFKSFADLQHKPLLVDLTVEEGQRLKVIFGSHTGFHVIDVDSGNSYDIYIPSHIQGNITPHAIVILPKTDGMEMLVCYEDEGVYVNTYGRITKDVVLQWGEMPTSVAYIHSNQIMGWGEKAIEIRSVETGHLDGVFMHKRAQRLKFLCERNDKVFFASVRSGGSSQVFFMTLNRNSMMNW
Sequence of Phosphatidylinositol 4,5-bisphosphate 3-kinase catalytic subunit alpha isoform (Homo sapiens), P42336 [H1047Y] (P42336 whole entry H1047Y, canonical isoform): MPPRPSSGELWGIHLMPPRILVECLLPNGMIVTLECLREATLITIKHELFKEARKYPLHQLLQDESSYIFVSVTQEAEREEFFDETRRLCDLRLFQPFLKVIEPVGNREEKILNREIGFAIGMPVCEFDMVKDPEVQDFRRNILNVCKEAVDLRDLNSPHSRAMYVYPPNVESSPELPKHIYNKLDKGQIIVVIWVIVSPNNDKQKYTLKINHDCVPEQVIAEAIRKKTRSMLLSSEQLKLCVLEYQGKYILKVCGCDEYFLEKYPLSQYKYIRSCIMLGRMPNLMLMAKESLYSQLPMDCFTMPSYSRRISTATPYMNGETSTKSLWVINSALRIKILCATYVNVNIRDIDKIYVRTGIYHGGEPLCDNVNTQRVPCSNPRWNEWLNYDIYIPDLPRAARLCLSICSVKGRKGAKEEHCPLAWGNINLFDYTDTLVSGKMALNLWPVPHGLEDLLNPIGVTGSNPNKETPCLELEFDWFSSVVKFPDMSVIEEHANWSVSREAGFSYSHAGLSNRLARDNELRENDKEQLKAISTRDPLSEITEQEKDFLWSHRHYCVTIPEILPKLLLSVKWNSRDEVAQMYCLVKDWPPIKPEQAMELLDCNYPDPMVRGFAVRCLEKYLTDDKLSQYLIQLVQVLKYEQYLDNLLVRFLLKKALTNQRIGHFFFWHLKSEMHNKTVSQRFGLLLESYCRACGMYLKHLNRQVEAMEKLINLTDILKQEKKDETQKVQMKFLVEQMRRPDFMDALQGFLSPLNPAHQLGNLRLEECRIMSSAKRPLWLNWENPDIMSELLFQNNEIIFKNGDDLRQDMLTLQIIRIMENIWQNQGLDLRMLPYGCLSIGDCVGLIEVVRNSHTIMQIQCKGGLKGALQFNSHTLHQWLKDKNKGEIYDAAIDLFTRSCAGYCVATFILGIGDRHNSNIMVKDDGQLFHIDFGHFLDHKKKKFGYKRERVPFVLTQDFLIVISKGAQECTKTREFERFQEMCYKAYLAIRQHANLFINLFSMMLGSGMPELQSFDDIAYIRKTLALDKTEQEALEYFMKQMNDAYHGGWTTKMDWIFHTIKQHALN
Sequence of TGF-beta receptor type-2 (Homo sapiens) (P37173 whole entry, canonical isoform): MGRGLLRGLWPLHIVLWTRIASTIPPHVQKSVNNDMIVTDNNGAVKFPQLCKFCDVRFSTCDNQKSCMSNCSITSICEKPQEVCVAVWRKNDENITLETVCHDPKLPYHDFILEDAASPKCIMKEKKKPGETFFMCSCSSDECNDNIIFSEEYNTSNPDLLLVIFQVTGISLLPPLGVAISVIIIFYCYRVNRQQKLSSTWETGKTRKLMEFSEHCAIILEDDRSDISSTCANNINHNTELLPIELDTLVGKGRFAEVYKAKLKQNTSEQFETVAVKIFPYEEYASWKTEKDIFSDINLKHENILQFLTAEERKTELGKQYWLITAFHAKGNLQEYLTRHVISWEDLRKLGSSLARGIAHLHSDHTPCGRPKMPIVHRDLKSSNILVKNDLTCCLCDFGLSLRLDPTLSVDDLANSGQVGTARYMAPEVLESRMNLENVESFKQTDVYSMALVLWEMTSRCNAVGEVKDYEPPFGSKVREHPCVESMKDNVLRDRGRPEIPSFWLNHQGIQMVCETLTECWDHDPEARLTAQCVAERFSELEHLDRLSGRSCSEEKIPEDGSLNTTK

Take `CCN1CCN(Cc2ccc(NC(=O)c3ccc(C)c(/C=C/c4cnc5[nH]ccc5c4OC)c3)cc2C(F)(F)F)CC1`: the inhibition in test [1] is 52%; in test [2], 71%; in [4], 13.5%; in [5] it was 48.1%; in test [6], 9.1%. The percent of control in test [3] was 5.4%.

Take `CCN1CCN(Cc2ccc(NC(=O)c3ccc(C)c(Oc4ccnc5[nH]ccc45)c3)cc2C(F)(F)F)CC1`: the inhibition in [7] was 0.4%; in test [10], 98.2%; in test [11], 6.1%; in [12], 92.7%; in test [4], 22.4%; in test [5], 70.8%. The percent of control in test [8] came to 0%. Also, the inhibition entry in test [9] and in [14] was “inactive” in each case. Moreover, 1 µM produced 7.6% inhibition in test [13].

Consider `CNc1cc(Oc2cc(C(=O)Nc3cc(N4CCN(C)CC4)cc(C(F)(F)F)c3)ccc2C)ncn1`, for which the inhibition in [15] worked out at 21.6%; in test [16], 33.2%.

The inhibition is the share of the control response that was lost under treatment.
